# Test results published in patent publication US10561614B2, “Tenofovir granules” (STEERLIFE INDIA PRIVATE LIMITED, priority 2017, dated 2020).
# Test: Organic impurities of TDF granules by HPLC (USP Pending Monograph procedure 1), before and after twin screw granulation
# Type: physicochemical
# Conditions: initial, no storage
# Method: The test of organic impurities of Tenofovir Disoproxil Fumarate granules carried out by HPLC (Make-Agilent 1260 Infinity series).
# The Tenofovir Disoproxil Fumarate granules sample was analyzed for organic impurities as per method based on Organic impurities, procedure 1 of USP Pending Monographs of Tenofovir Disoproxil Fumarate v.1 Authorized Sep. 1, 2011.
# The standard, Tenofovir Disoproxil Fumarate (TDF) was prepared in solution A. concentration 0.502 μg/mL in solution. The sample i.e., TDF granules of the present invention was prepared in solution A, concentration 520.05 μg/mL.
# The standard and sample solution was injected in chromatographic system and following impurity results are reported.
# The test of organic impurities of Tenofovir Disoproxil Fumarate granules carried out by HPLC (Agilent 1260 Infinity series).
# The Tenofovir Disoproxil Fumarate granules sample were analyzed for organic impurities as per Organic impurities, procedure 1 of USP Pending Monographs of Tenofovir Disoproxil Fumarate v.1 Authorized Sep. 1, 2011.
# The standard [Tenofovir Disoproxil Fumarate (TDF)] was prepared in solution A. concentration 0.502 μg/mL in solution.
# The sample [TDF granules of the present invention] was prepared in solution A, concentration 520.05 μg/mL.
compound,measurement,setting,value
"CC(C)OC(=O)OCOP(=O)(CO[C@H](C)Cn1cnc2c(N)ncnc21)OCOC(=O)OC(C)C.O=C(O)/C=C/C(=O)O [Unprocessed TDF API, 9-[(R)-2-[[bis[[(isopropoxycarbonyl)oxy]-methoxy]phosphinyl]methoxy]propyl]adenine fumarate (1:1)]",(R)-9-(2-Phosphonomethoxypropyl)adenine impurity,,BDL
same,Adenine impurity,,Not detected
same,Any individual unspecified impurity,,0.02%
same,Tenofovir disoproxil carbamate impurity,,Not detected
same,Tenofovir disoproxil dimer impurity,,0.04%
same,Tenofovir disoproxil ethyl ester impurity,,0.03%
same,Tenofovir isopropyl isoproxil impurity,,0.17%
same,Tenofovir isoproxil monoester impurity,,0.48%
same,Total impurities,,0.84%
same,Adenine impurity,listed as Unprocessed (API),BDL
same,Any individual unspecified impurity,listed as Unprocessed (API),0.015%
same,Tenofovir isopropyl isoproxil impurity,listed as Unprocessed (API),0.118%
same,Tenofovir isoproxil monoester impurity,listed as Unprocessed (API),0.321%
same,Total impurities,listed as Unprocessed (API),0.490%
